# Results reported in patent US11077100B2, “Tetrahydroquinoline derivatives as P2X7 receptor antagonists” (RaQualia Pharma Inc., priority 2017, dated 2021).
# Assays:
# human P2X7 = human P2X7 (Homo sapiens (Human), UniProt Q99572); test: Human P2X7 functional assay (Ca2+ influx, Fluo-4, FDSS); assay type: cell-based; conditions: antagonistic activity with respect to the human P2X7 receptor; BzATP final concentration 80 microM
# Outline: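 Ca2+ influx was triggered with BzATP (80 μM final) after a 10-min room-temperature compound preincubation and monitored with Fluo-4 (ex 480/em 540 nm) on FDSS. The cells were HEK293 stably carrying FLAG-tagged human P2X7. Duplicate-averaged 7-point dose-responses gave IC50s.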
# rat P2X7 = rat P2X7 (Rattus norvegicus (Rat), UniProt Q64663); test: Rat P2X7 functional assay (Ca2+ influx, Fluo-4, FDSS); assay type: cell-based; conditions: HEK293 cells stably expressing rat P2X7; BzATP final 10 microM; 7-point dose-response; read-out: Antagonistic activities with respect to the rat P2X7 receptor (IC50)
# Outline: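 IC50 derived from 7-point dose-response in duplicate, measuring inhibition of BzATP-evoked (final 10 microM) intracellular Ca2+ increase by Fluo-4 fluorescence on FDSS. Rat P2X7-HEK293 cells were exposed to compound for 10 min in the dark beforehand.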
# Chain of rat P2X7 (Q64663 whole entry): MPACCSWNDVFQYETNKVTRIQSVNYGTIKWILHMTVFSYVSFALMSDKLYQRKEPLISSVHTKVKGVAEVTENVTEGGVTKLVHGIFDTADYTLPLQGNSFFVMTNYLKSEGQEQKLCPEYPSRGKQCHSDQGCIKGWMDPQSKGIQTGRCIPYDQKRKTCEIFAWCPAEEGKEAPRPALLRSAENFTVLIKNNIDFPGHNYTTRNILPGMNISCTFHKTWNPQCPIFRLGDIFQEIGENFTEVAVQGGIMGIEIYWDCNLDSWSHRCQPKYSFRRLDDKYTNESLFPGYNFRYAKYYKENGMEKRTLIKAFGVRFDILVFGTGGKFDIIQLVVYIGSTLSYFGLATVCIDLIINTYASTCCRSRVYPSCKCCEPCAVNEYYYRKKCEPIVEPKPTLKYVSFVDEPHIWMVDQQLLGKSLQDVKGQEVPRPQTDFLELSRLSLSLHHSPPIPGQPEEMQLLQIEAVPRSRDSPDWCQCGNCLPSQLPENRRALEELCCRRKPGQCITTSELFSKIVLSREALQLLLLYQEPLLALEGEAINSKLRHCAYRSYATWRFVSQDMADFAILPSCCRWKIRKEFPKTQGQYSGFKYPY
# Chain of human P2X7 (Q99572 whole entry): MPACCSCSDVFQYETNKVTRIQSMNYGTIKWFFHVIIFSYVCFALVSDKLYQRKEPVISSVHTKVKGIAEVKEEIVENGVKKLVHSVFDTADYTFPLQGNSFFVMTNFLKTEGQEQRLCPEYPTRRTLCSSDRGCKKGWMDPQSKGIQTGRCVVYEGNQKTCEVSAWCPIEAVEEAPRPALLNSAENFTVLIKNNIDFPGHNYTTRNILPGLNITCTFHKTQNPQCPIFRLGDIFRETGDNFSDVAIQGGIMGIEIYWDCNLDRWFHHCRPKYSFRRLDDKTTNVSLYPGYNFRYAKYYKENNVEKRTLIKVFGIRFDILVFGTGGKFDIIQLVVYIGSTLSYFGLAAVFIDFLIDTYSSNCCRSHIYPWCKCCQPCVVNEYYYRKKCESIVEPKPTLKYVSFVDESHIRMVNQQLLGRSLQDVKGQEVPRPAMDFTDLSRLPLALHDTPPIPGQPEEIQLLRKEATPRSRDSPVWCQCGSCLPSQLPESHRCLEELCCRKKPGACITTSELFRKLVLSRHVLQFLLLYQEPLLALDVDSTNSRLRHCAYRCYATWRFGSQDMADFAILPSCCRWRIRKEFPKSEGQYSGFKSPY
SMILES,IC50 (human P2X7) [nM],IC50 (rat P2X7) [nM]
"O=C(NCc1c(Cl)cc(Cl)cc1CO)[C@@]1(F)CC[C@@H](O)c2ncccc21 [Example 130, (5R,8R)-N-(2,4-dichloro-6-(hydroxymethyl)benzyl)-5-fluoro-8-hydroxy-5,6,7,8-tetrahydroquinoline-5-carboxamide]",< 50,< 1000
"O=C(NCc1c(Cl)cc(Cl)cc1CO)[C@]1(F)CC[C@H](O)c2ncccc21 [Example 131, (5S,8S)-N-(2,4-dichloro-6-(hydroxymethyl)benzyl)-5-fluoro-8-hydroxy-5,6,7,8-tetrahydroquinoline-5-carboxamide]",< 50,< 1000
"O=C(NCc1ccc(Cl)cc1Cl)[C@@]1(F)CC[C@@H](O)c2ncccc21 [Example 132, (5R,8R)-N-(2,4-dichlorobenzyl)-5-fluoro-8-hydroxy-5,6,7,8-tetrahydroquinoline-5-carboxamide]",< 50,< 1000
"O=C(NCc1ccc(Cl)cc1Cl)[C@]1(F)CC[C@H](O)c2ncccc21 [Example 133, (5S,8S)—N-(2,4-dichlorobenzyl)-5-fluoro-8-hydroxy-5,6,7,8-tetrahydroquinoline-5-carb oxamide]",< 50,< 1000
"O=C(NCc1ccc(F)cc1Cl)[C@@]1(F)CC[C@@H](O)c2ncccc21 [Example 134, (5R,8R)-N-(2-chloro-4-fluorobenzyl)-5-fluoro-8-hydroxy-5,6,7,8-tetrahydroquinoline-5-carboxamide]",101 to 300,< 1000
"O=C(NCc1ccc(F)cc1Cl)[C@]1(F)CC[C@H](O)c2ncccc21 [Example 135, (5S,8S)-N-(2-chloro-4-fluorobenzyl)-5-fluoro-8-hydroxy-5,6,7,8-tetrahydroquinoline-5-carboxamide]",< 50,< 1000
"O=C(NCc1ccc(F)c(F)c1F)[C@@]1(F)CC[C@@H](O)c2ncccc21 [Example 136, (5R,8R)-5-fluoro-8-hydroxy-N-(2,3,4-trifluorobenzyl)-5,6,7,8-tetrahydroquinoline-5-carboxamide]",101 to 300,< 1000
"O=C(NCc1ccc(F)c(F)c1F)[C@]1(F)CC[C@H](O)c2ncccc21 [Example 137, (5S,8S)-5-fluoro-8-hydroxy-N-(2,3,4-trifluorobenzyl)-5,6,7,8-tetrahydroquinoline-5-carboxamide]",< 50,< 1000

# The remaining lines, values ahead:
IC50 (human P2X7) [nM],IC50 (rat P2X7) [nM],SMILES
< 50,< 1000,"O=C(NCc1c(Cl)cccc1Cl)[C@]1(F)CC[C@H](O)c2ncccc21 [Example 139, (5S,8S)-N-(2,6-dichlorobenzyl)-5-fluoro-8-hydroxy-5,6,7,8-tetrahydroquinoline-5-carboxamide]"
< 50,< 1000,"O=C(NCc1ccc(F)cc1F)[C@]1(F)CC[C@H](O)c2ncccc21 [Example 141, (5S,8S)-N-(2,4-difluorobenzyl)-5-fluoro-8-hydroxy-5,6,7,8-tetrahydroquinoline-5-carboxamide]"
< 50,< 1000,"Cc1ccc(F)c(CNC(=O)[C@]2(F)CC[C@H](O)c3ncccc32)c1Cl [Example 142, (5S,8S)-N-(2-chloro-6-fluoro-3-methylbenzyl)-5-fluoro-8-hydroxy-5,6,7,8-tetrahydroquinoline-5-carboxamide]"
< 50,< 1000,"O=C(NCc1ccc(Cl)cc1F)[C@]1(F)CC[C@H](O)c2ncccc21 [Example 146, (5S,8S)-N-(4-chloro-2-fluorobenzyl)-5-fluoro-8-hydroxy-5,6,7,8-tetrahydroquinoline-5-carboxamide]"
< 50,< 1000,"O=C(NCc1c(Cl)cc(C(F)(F)F)cc1Cl)[C@]1(F)CC[C@H](O)c2ncccc21 [Example 148, (5S,8S)-N-(2,6-dichloro-4-(trifluoromethyl)benzyl)-5-fluoro-8-hydroxy-5,6,7,8-tetrahydroquinoline-5-carboxamide]"
